Peptide text beside a SMILES is read from it.
How the values were obtained:
[1] = system: 8H5 binding to H5N1 virus Chicken/HongKong/YU22/2002; design: species or system H5N1 avian influenza virus
[2] = system: 8H5 binding to H5N1 virus Shenzhen/406H/2006; design: species or system H5N1 avian influenza virus
[3] = system: chicken serum antibody against H5N1 avian influenza virus; type: binding
8H5 mAb [4] = type: binding, murine
8H5 mAb [5] = type: binding, murine; conditions: read-out: Kd (dissociation constant for 8H5)

Structure (SMILES): CC[C@H](C)[C@H](NC(=O)[C@@H](NC(=O)[C@H](CC(C)C)NC(=O)[C@@H]1CCCN1C(=O)[C@@H](NC(=O)[C@@H](N)CC(=O)O)[C@@H](C)O)[C@@H](C)O)C(=O)N[C@@H](C)C(=O)NCC(=O)N[C@@H](CC(C)C)C(=O)N[C@@H](CCCCN)C(=O)N[C@@H](CC(C)C)C(=O)N[C@H](C(=O)O)C(C)C [II-1c] (H-DTPLTIAGLKLV-OH; N-terminus and C-terminus assumed)
- Blocking Dose Yu22: amount of peptide that blocks binding of 8H5 to the virus by 50% [1]: 8.90 µg
- Blocking Dose SZ/406H: amount of peptide that blocks binding of 8H5 to the virus by 50% [2]: 2.38 µg

Structure (SMILES): CC(C)C[C@H](NC(=O)[C@H](C)NC(=O)[C@H](CCC(N)=O)NC(=O)[C@H](CCCCN)NC(=O)[C@@H](NC(=O)[C@H](CC(C)C)NC(=O)[C@H](CCC(=O)O)NC(=O)[C@@H](NC(=O)[C@@H](N)CC(=O)O)[C@@H](C)O)[C@@H](C)O)C(=O)N[C@@H](CCCNC(=N)N)C(=O)N[C@@H](CC(C)C)C(=O)N[C@H](C(=O)O)C(C)C [III-2a] (H-DTELTKQALRLV-OH; N-terminus and C-terminus assumed)
- Blocking Dose Yu22: amount of peptide that blocks binding of 8H5 to the virus by 50% [1]: 15.19 µg
- Blocking Dose SZ/406H: amount of peptide that blocks binding of 8H5 to the virus by 50% [2]: 6.10 µg

Structure (SMILES): CC[C@H](C)[C@H](NC(=O)[C@@H](NC(=O)[C@H](CC(C)C)NC(=O)[C@H](CCC(=O)O)NC(=O)[C@@H](NC(=O)[C@@H](N)CCC(=O)O)[C@@H](C)O)[C@@H](C)O)C(=O)N[C@@H](C)C(=O)N[C@@H](C)C(=O)N[C@@H](CC(C)C)C(=O)N[C@@H](CCCCN)C(=O)N[C@@H](Cc1ccc(O)cc1)C(=O)N[C@H](C(=O)O)C(C)C [IV-1b] (H-ETELTIAALKYV-OH; N-terminus and C-terminus assumed)
- Blocking Dose Yu22: amount of peptide that blocks binding of 8H5 to the virus by 50% [1]: >50 µg
- Blocking Dose SZ/406H: amount of peptide that blocks binding of 8H5 to the virus by 50% [2]: >50 µg

Structure (SMILES): CC[C@H](C)[C@H](NC(=O)[C@@H](NC(=O)[C@H](CC(C)C)NC(=O)[C@@H]1CCCN1C(=O)[C@@H](NC(=O)[C@@H](N)CCC(=O)O)[C@@H](C)O)[C@@H](C)O)C(=O)N[C@@H](C)C(=O)NCC(=O)N[C@@H](CC(C)C)C(=O)N[C@@H](CCCCN)C(=O)N[C@@H](CC(C)C)C(=O)N[C@@H](CCCCN)C(=O)O [V-1b] (H-ETPLTIAGLKLK-OH; N-terminus and C-terminus assumed)
- Blocking Dose Yu22: amount of peptide that blocks binding of 8H5 to the virus by 50% [1]: 5.70 µg
- Blocking Dose SZ/406H: amount of peptide that blocks binding of 8H5 to the virus by 50% [2]: 2.31 µg
- reactivity of the ELISA produced with V-1b fused to HBcAg with chicken serum samples [3]: only the H5N1 avian influenza reactive samples were also 8H5 reactive

Structure (SMILES): CC(C)C[C@H](NC(=O)[C@H](C)NC(=O)[C@H](C)NC(=O)[C@@H](NC(=O)[C@@H](NC(=O)[C@H](CC(C)C)NC(=O)[C@@H]1CCCN1C(=O)[C@@H](NC(=O)[C@@H](N)CC(=O)O)[C@@H](C)O)[C@@H](C)O)[C@@H](C)O)C(=O)N[C@@H](CCCNC(=N)N)C(=O)N[C@@H](CC(C)C)C(=O)N[C@H](C(=O)O)C(C)C [p125] (H-DTPLTTAALRLV-OH; N-terminus and C-terminus assumed)
- 8H5 titer (Tod1.5): phage dilution yielding an OD value of 1.5 (8H5 mAb [4]): 2.96
- Blocking Dose Yu22: amount of peptide that blocks binding of 8H5 to the virus by 50% [1]: 18.34 µg
- Blocking Dose SZ/406H: amount of peptide that blocks binding of 8H5 to the virus by 50% [2]: 11.16 µg
- Kd (8H5 mAb [5]): 824 nM

Reference: paper PMC3166295 (PLoS ONE, 2011)
